Data as given in US20150164762A1, “USE OF ETHANOLAMINE PHOSPHATE” (priority 2012, published 2015).
Like-named read-outs stand apart in the source and are kept apart here.

Legend:
BEAS-2B [1] = test: Cell toxicity of H2O2 after EP pre-treatment (WST-8 assay); type: cell-based, human; details: Homo sapiens, BEAS-2B, read-out: EC50 (50% cell death concentration of H2O2)
Description: Cells of the normal airway epithelial cell line BEAS-2B were seeded at a density of 1×10^5/cm^2 on a 96-well plate, and after 24 hours the medium was replaced with 0.5% FBS RPMI 1640 containing EP at final concentrations of 0, 250 and 500 μM. 24 hours after medium replacement the medium was replaced with 0.5% FBS RPMI-1640, and serially diluted H2O2 was administered (n=4). 24 hours after H2O2 administration a cell toxicity test WST-8 assay (Cell Counting Kit-8, Dojindo) was performed. For the data analysis, the 50% cell death concentration EC50 was calculated with GraphPad Prism 5 statistical analysis software.

BEAS-2B [2] = test: DNA microarray of H2O2-treated samples and correlational analysis with EP; type: cell-based, human; details: H2O2 125 μM, 6 hours
Description: The data of Example 13 were used as the EP gene expression data. Cell preparation and H2O2 administration were performed as in Test 13. Samples that had been treated for 6 hours with H2O2 at a final concentration of 125 μM were used as samples for gene expression analysis by DNA microarray.

BEAS-2B [3] = test: Proliferation test with GABA receptor agonists and GABA-A antagonist (WST-8); type: cell-based, human; details: 0.1% FBS, 72 hours
Description: […] […] Next, 10 μl per well of GABA (GABA-A and GABA-B receptor agonist) and homotaurine (GABA-A agonist) were added. A proliferation test (WST-8 assay) was performed after 72 hours.
[…] […] 10 μl per well of EP solution was added. A proliferation test (WST-8 assay) was performed after 72 hours.

BEAS-2B [4] = test: Permeability test, 4-kilodalton fluorescent dextran through BEAS-2B cell sheet (Papp); type: cell-based, human; details: Dex 1 μM, with or without EP 1 mM
Description: Cells of the established normal human airway epithelial cell line BEAS-2B were seeded to 1×10^5 cells/cm^2 on a cell culture insert (353104, BD Falcon) (FIG. 14). 10% FBS RPMI-1640 was used as the medium. The amount of medium was 200 μl on the insert side and 750 μl on the well side. Beginning the next day, substitution/medium replacement was performed once a day with 1% FBS RPMI-1640 prepared with the following 4 reagent conditions, and transepithelial electrical resistance (TER) was measured with MilliCell (Millipore). • Condition 1: Control • Condition 2: EP 1 mM • Condition 3: Dexamethasone 1 μM (dexamethasone (Dex): positive control substance known to enhance barrier function) • Condition 4: EP 1 mM and Dex 1 μM
7 days after cell seeding a permeability test was performed as follows.
A 4-kilodalton fluorescent dextran molecule (Sigma) was added to the cell culture insert to a concentration of 0.1 mg/ml, 20 μl of the medium on the well side was removed after 1 hour, and the amount of permeating fluorescent dextran was estimated from the fluorescent strength at each concentration. The permeation rate Papp of a substance from the insert side to the well side is normally determined by the following formula.
Papp=(volume of medium on well side/insert area×initial insert concentration)×(altered concentration on well side/elapsed time)

HHDPC cells = test: WST-8 proliferation test, primary normal human hair dermal papilla cells (HHDPC); details: high concentrations
Description: HHDPC cells (Cosmo Bio) were seeded to 1×10^4 cells/cm^2 on a 96-well plate. Complete MSCM medium (500, ScienCell) was used as the medium. After 24 hours, the cells were washed gently with 200 μl per well of PBS, the medium was replaced with 90 μl per well of 0% FBS DMEM with 1 vol % of complete MSCM medium added thereto, and the cells were cultured for 24 hours. After culture, 10 μl per well of EP solution was added, and a proliferation test (WST-8 assay) was performed 6 days after EP administration. The WST-8 assay was performed as in Example 1. The same test was performed using minoxidil, which has a clinical hair growth effect.

BEAS-2B [5] = test: Proliferative effects of EP and its metabolic derivatives (WST-8); type: cell-based, human

`OO` [H2O2, hydrogen peroxide, reference compound] was tested, and the EC50 (BEAS-2B [1]; cells pre-treated with 250 uM EP) was 190 µM, the EC50 (BEAS-2B [1]; cells pre-treated with 500 uM EP) was 177 µM and the EC50 (BEAS-2B [1]; control, no EP pre-treatment, 24 h) was 128 µM. For the same compound, the “expression of apoptosis-associated genes reduced by EP (30 probes)” value (BEAS-2B [2]) was “generally had their expression increased” and the “expression of cytokines and chemokines” value (BEAS-2B [2]) was “induced expression of cytokines and chemokines”.

In the case of `C[N+]1(C)CCc2cc3c(cc2[C@H]1[C@@H]1OC(=O)c2c1ccc1c2OCO1)OCO3.[Cl-]` [BM, (−)-Bicuculline Methochloride], the “inhibition of the proliferative action of EP” value (BEAS-2B [3]) is reported as “not inhibited”.

`C[C@@H]1C[C@H]2[C@@H]3CCC4=CC(=O)C=C[C@]4(C)[C@@]3(F)[C@@H](O)C[C@]2(C)[C@@]1(O)C(=O)CO` [dexamethasone, reference compound] was tested, and the “drop in Papp” value (BEAS-2B [4]) was “no rise in TER or drop in Papp”.

For `Nc1cc(N2CCCCC2)nc(N)[n+]1[O-]` [Minoxidil, minoxidil, reference compound], the cell toxicity (HHDPC cells) was “toxic above that range”.

For `NCCCC(=O)O` [GABA], the proliferative action (BEAS-2B [3]) was “neither the GABA-A and GABA-B receptor agonist GABA nor the EP structural analog and GABA-A receptor agonist homotaurine exhibited any statistically significant proliferative action”.

In the case of `NCCO` [ethanolamine], the “animal cell proliferation without serum or growth factors” value (BEAS-2B [5]) is reported as “not obtained” and the proliferative action (BEAS-2B [5]; 0.1% FBS, 72 hours) is reported as “much weaker than that of EP”.

`C[N+](C)(C)CCOP(=O)(O)OP(=O)([O-])OC[C@H]1O[C@@H](n2ccc(N)nc2=O)[C@H](O)[C@@H]1O` [CDP-choline] was tested, and the “animal cell proliferation without serum or growth factors” value (BEAS-2B [5]) was “not obtained”.

In the case of `NCCCS(=O)(=O)O` [homotaurine], the proliferative action (BEAS-2B [3]) is reported as “neither the GABA-A and GABA-B receptor agonist GABA nor the EP structural analog and GABA-A receptor agonist homotaurine exhibited any statistically significant proliferative action”.

For `C[N+](C)(C)CCOP(=O)(O)O` [phosphorylcholine], the “animal cell proliferation without serum or growth factors” value (BEAS-2B [5]) was “not obtained”.

For `OCCNCCO` [diethanolamine], the “animal cell proliferation without serum or growth factors” value (BEAS-2B [5]) was “not obtained”.
